{"source": "ChEMBL document CHEMBL3400010", "about": "“Cytotoxic and antioxidant constituents from the leaves of Psidium guajava” (Bioorg Med Chem Lett, 2015)", "key": {"HeLa": {"test_system": "HeLa", "test": "Cytotoxicity against human HeLa cells by MTT assay", "format": "functional, cell-based"}, "[1]": {"test": "Antioxidant activity assessed as FRAP values at 100 ug/ml incubated at 37 degC for 5 mins by FeSO4.7H2O calibration curve based method", "format": "physicochemical"}, "[2]": {"test": "Antioxidant activity assessed as ABTS radical scavenging activity after 15 mins", "format": "physicochemical"}, "[3]": {"test": "Antioxidant activity assessed as FRAP values at 12.5 ug/ml incubated at 37 degC for 5 mins by FeSO4.7H2O calibration curve based method", "format": "physicochemical"}, "A549": {"test_system": "A549", "test": "Cytotoxicity against human A549 cells by MTT assay", "format": "functional, cell-based"}, "[4]": {"test": "Antioxidant activity assessed as DPPH radical scavenging activity after 30 mins by microplate reader based assay", "format": "physicochemical"}, "[5]": {"test": "Cytotoxicity against human SGC7901 cells by MTT assay", "format": "functional, cell-based", "conditions": "SGC-7901"}, "[6]": {"test": "Antioxidant activity assessed as FRAP values at 25 ug/ml incubated at 37 degC for 5 mins by FeSO4.7H2O calibration curve based method", "format": "physicochemical"}, "[7]": {"test": "Antioxidant activity assessed as FRAP values at 50 ug/ml incubated at 37 degC for 5 mins by FeSO4.7H2O calibration curve based method", "format": "physicochemical"}}}
{"compound": "O=C(OC[C@H]1O[C@@H](Oc2cc(-c3ccccc3)oc(=O)c2)[C@H](O)[C@@H](O)[C@@H]1O)c1cc(O)c(O)c(O)c1", "values": [{"measurement": "IC50", "setting": "HeLa", "value": 3.25, "unit": "µg/mL"}, {"measurement": "Activity", "setting": "[1]", "value": 386.38, "unit": "µmol/L"}, {"measurement": "IC50", "setting": "[2]", "value": 5.47, "unit": "µg/mL"}, {"measurement": "Activity", "setting": "[3]", "value": 91.28, "unit": "µmol/L"}, {"measurement": "IC50", "setting": "A549", "value": 7.29, "unit": "µg/mL"}, {"measurement": "IC50", "setting": "[4]", "value": 13.07, "unit": "µg/mL"}, {"measurement": "IC50", "setting": "[5]", "value": 4.28, "unit": "µg/mL"}, {"measurement": "Activity", "setting": "[6]", "value": 143.76, "unit": "µmol/L"}, {"measurement": "Activity", "setting": "[7]", "value": 250.53, "unit": "µmol/L"}]}
{"compound": "Cc1c(O)cc(O[C@@H]2O[C@H](CO)[C@@H](O)[C@H](O)[C@H]2O)c(C(=O)c2ccccc2)c1O", "values": [{"measurement": "IC50", "setting": "HeLa", "value": "> 10", "unit": "µg/mL"}, {"measurement": "IC50", "setting": "[2]", "value": 29.27, "unit": "µg/mL"}, {"measurement": "IC50", "setting": "A549", "value": "> 10", "unit": "µg/mL"}, {"measurement": "IC50", "setting": "[4]", "value": "> 100", "unit": "µg/mL"}, {"measurement": "IC50", "setting": "[5]", "value": "> 10", "unit": "µg/mL"}]}
{"compound": "Cc1c(O)c(C)c(O[C@@H]2O[C@H](CO)[C@@H](O)[C@H](O)[C@H]2O)c(C(=O)c2ccccc2)c1O", "values": [{"measurement": "IC50", "setting": "HeLa", "value": "> 10", "unit": "µg/mL"}, {"measurement": "Activity", "setting": "[1]", "value": 46.37, "unit": "µmol/L"}, {"measurement": "IC50", "setting": "[2]", "value": 32.97, "unit": "µg/mL"}, {"measurement": "Activity", "setting": "[3]", "value": 11.54, "unit": "µmol/L"}, {"measurement": "IC50", "setting": "A549", "value": "> 10", "unit": "µg/mL"}, {"measurement": "IC50", "setting": "[4]", "value": "> 100", "unit": "µg/mL"}, {"measurement": "IC50", "setting": "[5]", "value": "> 10", "unit": "µg/mL"}, {"measurement": "Activity", "setting": "[6]", "value": 14, "unit": "µmol/L"}, {"measurement": "Activity", "setting": "[7]", "value": 23.73, "unit": "µmol/L"}]}
{"compound": "O=C(OC[C@H]1O[C@@H](Oc2cc(O)c(C(=O)c3ccccc3)c(O)c2)[C@H](O)[C@@H](O)[C@@H]1O)c1cc(O)c(O)c(O)c1", "values": [{"measurement": "IC50", "setting": "HeLa", "value": "> 10", "unit": "µg/mL"}, {"measurement": "Activity", "setting": "[1]", "value": 174.6, "unit": "µmol/L"}, {"measurement": "IC50", "setting": "[2]", "value": 13.63, "unit": "µg/mL"}, {"measurement": "Activity", "setting": "[3]", "value": 18.46, "unit": "µmol/L"}, {"measurement": "IC50", "setting": "A549", "value": "> 10", "unit": "µg/mL"}, {"measurement": "IC50", "setting": "[4]", "value": 37.93, "unit": "µg/mL"}, {"measurement": "IC50", "setting": "[5]", "value": "> 10", "unit": "µg/mL"}, {"measurement": "Activity", "setting": "[6]", "value": 53.29, "unit": "µmol/L"}, {"measurement": "Activity", "setting": "[7]", "value": 131.03, "unit": "µmol/L"}]}
{"compound": "Cc1c(O)c(C(=O)c2ccccc2)c(O)c(C)c1O[C@@H]1O[C@H](COC(=O)c2cc(O)c(O)c(O)c2)[C@@H](O)[C@H](O)[C@H]1O", "values": [{"measurement": "IC50", "setting": "HeLa", "value": "> 10", "unit": "µg/mL"}, {"measurement": "Activity", "setting": "[1]", "value": 341.94, "unit": "µmol/L"}, {"measurement": "IC50", "setting": "[2]", "value": 8.3, "unit": "µg/mL"}, {"measurement": "Activity", "setting": "[3]", "value": 48.3, "unit": "µmol/L"}, {"measurement": "IC50", "setting": "A549", "value": "> 10", "unit": "µg/mL"}, {"measurement": "IC50", "setting": "[4]", "value": 28.33, "unit": "µg/mL"}, {"measurement": "IC50", "setting": "[5]", "value": "> 10", "unit": "µg/mL"}, {"measurement": "Activity", "setting": "[6]", "value": 90.63, "unit": "µmol/L"}, {"measurement": "Activity", "setting": "[7]", "value": 185.03, "unit": "µmol/L"}]}
{"compound": "C/C(=C/O[C@@H]1O[C@H](COC(=O)c2cc(O)c(O)c(O)c2)[C@@H](O)[C@H](O)[C@H]1O)C(=O)O", "values": [{"measurement": "IC50", "setting": "HeLa", "value": 3.51, "unit": "µg/mL"}, {"measurement": "Activity", "setting": "[1]", "value": 413.94, "unit": "µmol/L"}, {"measurement": "IC50", "setting": "[2]", "value": 5.93, "unit": "µg/mL"}, {"measurement": "Activity", "setting": "[3]", "value": 70.64, "unit": "µmol/L"}, {"measurement": "IC50", "setting": "A549", "value": 7.01, "unit": "µg/mL"}, {"measurement": "IC50", "setting": "[4]", "value": 13.1, "unit": "µg/mL"}, {"measurement": "IC50", "setting": "[5]", "value": 3.73, "unit": "µg/mL"}, {"measurement": "Activity", "setting": "[6]", "value": 152.02, "unit": "µmol/L"}, {"measurement": "Activity", "setting": "[7]", "value": 263.31, "unit": "µmol/L"}]}
{"compound": "O=C1O[C@H]([C@@H](O)CO)C(O)=C1O", "note": "[ASCORBIC ACID]", "values": [{"measurement": "Activity", "setting": "[1]", "value": 442.43, "unit": "µmol/L"}, {"measurement": "IC50", "setting": "[2]", "value": 8.53, "unit": "µg/mL"}, {"measurement": "Activity", "setting": "[3]", "value": 149.97, "unit": "µmol/L"}, {"measurement": "IC50", "setting": "[4]", "value": 16.3, "unit": "µg/mL"}, {"measurement": "Activity", "setting": "[6]", "value": 292.1, "unit": "µmol/L"}, {"measurement": "Activity", "setting": "[7]", "value": 396.76, "unit": "µmol/L"}]}
{"compound": "O=c1c(O[C@@H]2O[C@@H](CO)[C@H](O)[C@H]2O)c(-c2ccc(O)c(O)c2)oc2cc(O)cc(O)c12", "note": "[AVICULARIN]", "values": [{"measurement": "IC50", "setting": "HeLa", "value": "> 10", "unit": "µg/mL"}, {"measurement": "Activity", "setting": "[1]", "value": 324.58, "unit": "µmol/L"}, {"measurement": "IC50", "setting": "[2]", "value": 6.9, "unit": "µg/mL"}, {"measurement": "Activity", "setting": "[3]", "value": 123.88, "unit": "µmol/L"}, {"measurement": "IC50", "setting": "A549", "value": "> 10", "unit": "µg/mL"}, {"measurement": "IC50", "setting": "[4]", "value": 16.13, "unit": "µg/mL"}, {"measurement": "IC50", "setting": "[5]", "value": "> 10", "unit": "µg/mL"}, {"measurement": "Activity", "setting": "[6]", "value": 269, "unit": "µmol/L"}, {"measurement": "Activity", "setting": "[7]", "value": 291.63, "unit": "µmol/L"}]}
{"compound": "COc1cccc2c1C(=O)c1c(O)c3c(c(O)c1C2=O)C[C@@](O)(C(=O)CO)C[C@@H]3O[C@H]1C[C@H](N)[C@H](O)[C@H](C)O1", "note": "[DOXORUBICIN]", "values": [{"measurement": "IC50", "setting": "HeLa", "value": 2.68, "unit": "µg/mL"}, {"measurement": "IC50", "setting": "A549", "value": 3.12, "unit": "µg/mL"}, {"measurement": "IC50", "setting": "[5]", "value": 1.36, "unit": "µg/mL"}]}
{"compound": "O=c1c(O[C@@H]2OC[C@H](O)[C@H](O)[C@H]2O)c(-c2ccc(O)c(O)c2)oc2cc(O)cc(O)c12", "note": "[GUAJAVERIN]", "values": [{"measurement": "IC50", "setting": "HeLa", "value": "> 10", "unit": "µg/mL"}, {"measurement": "Activity", "setting": "[1]", "value": 346.45, "unit": "µmol/L"}, {"measurement": "IC50", "setting": "[2]", "value": 6.7, "unit": "µg/mL"}, {"measurement": "Activity", "setting": "[3]", "value": 57.21, "unit": "µmol/L"}, {"measurement": "IC50", "setting": "A549", "value": "> 10", "unit": "µg/mL"}, {"measurement": "IC50", "setting": "[4]", "value": 13.43, "unit": "µg/mL"}, {"measurement": "IC50", "setting": "[5]", "value": "> 10", "unit": "µg/mL"}, {"measurement": "Activity", "setting": "[6]", "value": 175.59, "unit": "µmol/L"}, {"measurement": "Activity", "setting": "[7]", "value": 220.51, "unit": "µmol/L"}]}
{"compound": "O=c1c(O[C@@H]2O[C@H](CO)[C@H](O)[C@H](O)[C@H]2O)c(-c2ccc(O)c(O)c2)oc2cc(O)cc(O)c12", "note": "[HYPEROSIDE]", "values": [{"measurement": "IC50", "setting": "HeLa", "value": "> 10", "unit": "µg/mL"}, {"measurement": "Activity", "setting": "[1]", "value": 329.68, "unit": "µmol/L"}, {"measurement": "IC50", "setting": "[2]", "value": 10.57, "unit": "µg/mL"}, {"measurement": "Activity", "setting": "[3]", "value": 68.06, "unit": "µmol/L"}, {"measurement": "IC50", "setting": "A549", "value": "> 10", "unit": "µg/mL"}, {"measurement": "IC50", "setting": "[4]", "value": 27.03, "unit": "µg/mL"}, {"measurement": "IC50", "setting": "[5]", "value": "> 10", "unit": "µg/mL"}, {"measurement": "Activity", "setting": "[6]", "value": 155.89, "unit": "µmol/L"}, {"measurement": "Activity", "setting": "[7]", "value": 287.94, "unit": "µmol/L"}]}
{"compound": "O=c1c(O)c(-c2ccc(O)c(O)c2)oc2cc(O)cc(O)c12", "note": "[QUERCETIN]", "values": [{"measurement": "IC50", "setting": "HeLa", "value": 8.26, "unit": "µg/mL"}, {"measurement": "Activity", "setting": "[1]", "value": 401.27, "unit": "µmol/L"}, {"measurement": "IC50", "setting": "[2]", "value": 4.4, "unit": "µg/mL"}, {"measurement": "Activity", "setting": "[3]", "value": 333.26, "unit": "µmol/L"}, {"measurement": "IC50", "setting": "A549", "value": "> 10", "unit": "µg/mL"}, {"measurement": "IC50", "setting": "[4]", "value": 11, "unit": "µg/mL"}, {"measurement": "IC50", "setting": "[5]", "value": 7.88, "unit": "µg/mL"}, {"measurement": "Activity", "setting": "[6]", "value": 359.18, "unit": "µmol/L"}, {"measurement": "Activity", "setting": "[7]", "value": 379.4, "unit": "µmol/L"}]}
